According to patent US20180265707A1, “DICHROIC DYE COMPOUND, DICHROIC DYE COMPOSITION, LIGHT-ABSORBING ANISOTROPIC FILM, POLARIZING ELEMENT, AND IMAGE DISPLAY DEVICE” (FUJIFILM Corporation, priority 2015, published 2018):

Test: Solubility in cyclopentanone
Type: physicochemical
Conditions: solvent cyclopentanone
Method: For Compounds (1) to (8) thus synthesized, solubility in cyclopentanone was measured.

SMILES | Solubility in cyclopentanone
CCCCC(CC)C(=O)OCCc1ccc(/N=N/c2cc3sc(/N=N/c4ccc(N(CC)CC)cc4)nc3s2)cc1 (centres unmarked) [Compound (3)] | 6.0% by mass
CCCCCC(=O)OCCCCOC(=O)c1ccc(/N=N/c2cc3sc(/N=N/c4ccc(N(CC)CC)cc4)nc3s2)cc1 [Compound (5)] | 1.2% by mass
CCN(CC)c1ccc(/N=N/c2nc3sc(/N=N/c4ccc(CCOC(=O)CCC(=O)OCCC(C)CCCC(C)C)cc4)cc3s2)cc1 (centres unmarked) [Compound (4)] | 5.4% by mass
CCCCCCCCCCCCc1ccc(/N=N/c2cc3sc(/N=N/c4ccc(N(CC)CC)cc4)nc3s2)cc1 [Compound (6), reference compound] | 0.59% by mass
CCCOC(=O)c1ccc(/N=N/c2cc3sc(/N=N/c4ccc(N(CC)CC)cc4)nc3s2)cc1 [Compound (7), reference compound] | 0.19% by mass
CCCCOC(=O)CCC(=O)OCCc1ccc(/N=N/c2cc3sc(/N=N/c4ccc(N(CC)CC)cc4)nc3s2)cc1 [Compound (1)] | 1.6% by mass
CCN(CC)c1ccc(/N=N/c2nc3sc(/N=N/c4ccc(CCC(=O)OCCC(C)CCCC(C)C)cc4)cc3s2)cc1 (centres unmarked) [Compound (2)] | 4.5% by mass
CCCCCCCCCC(=O)OCCc1ccc(/N=N/c2cc3sc(/N=N/c4ccc(N(CC)CC)cc4)nc3s2)cc1 [Compound (8), reference compound] | 0.50% by mass
